Values quoted from earlier work in the PKSmart pharmacokinetics tables (Seal et al. 2025).
*1 amine or outer side, *2 acyl side, *3 side chain or, on linkers, in order; H or OH if unused. Where a SMILES comes first, the peptide text is derived from it. Bridges are numbered along the chain shown (N, C = ends). [ ]: non-standard residue; d: D form. The star is where a group is joined. ξ: configuration not given here. X2 = CC[C@H](C)[C@@H](N[*:1])[C@@H](O)CC(=O)OC(C(=O)C(C)C(=O)[*:2])C(C)C; ξThr(3R)(O-yl) = C[C@@H](O[*:3])C(N[*:1])C(=O)[*:2]; ξNMeY = CNC(Cc1ccc(O)cc1)C(=O)O; ξNMeL = CNC(CC(C)C)C(=O)O; Pyruvoyl = CC(=O)C(=O)*; ξL = CC(C)CC(N)C(=O)O; ξP = O=C(O)C1CCCN1

Test: Lombardo, Berellini, Obach 2018, Drug Metab Dispos 46:1466, doi 10.1124/dmd.118.082966
Settings: human; for MRT / Vd / clearance / half-life: in vivo, iv; for fraction unbound: plasma

SMILES	MRT [h]	Vd [L/kg]	clearance [mL/min/kg]	half-life [h]	fraction unbound
COc1ccccc1Oc1c(NS(=O)(=O)c2ccc(C)cn2)nc(-c2ccnc(-c3nnn[nH]3)c2)nc1OCCO	0.4	0.23	10.5	2.6	0.02
C[C@@H]1C[C@H]2C3C[C@H](F)C4=CC(=O)C=C[C@]4(C)[C@@]3(F)[C@@H](O)C[C@]2(C)[C@@]1(OC(=O)c1ccco1)C(=O)SCF (stereo not given in full)	–	4.95	13.4	10.6	–
CCC(=O)O[C@H](CC(=O)[O-])C[N+](C)(C)C	2.15	0.3	2.33	1.28	–
C[C@]12CC=C3C4=C(CCC3[C@@H]1CC[C@@]2(O)CC#N)CC(=O)CC4 (stereo not given in full)	8.52	0.6	1.29	11	0.1
O=C(/C=C/c1ccc(O)cc1)C1=C(O)[C@](O)([C@@H]2O[C@H](CO)[C@@H](O)[C@H](O)[C@H]2O)C(O)=C([C@@H]2O[C@H](CO)[C@@H](O)[C@H](O)[C@H]2O)C1=O	3.6	0.2	1	2.9	0.22
COc1ccc(-c2nc3cc(C4=NNC(=O)CC4C)ccc3[nH]2)cc1 (stereo not given)	2.2	2	–	1.8	0.024
CCc1cnn2c(NCc3ccc[n+]([O-])c3)cc(N3CCCC[C@H]3CCO)nc12	1.1	0.32	4.65	2.1	–
O=C(O)CCCC[C@H]1CCSS1	0.13	0.11	13.4	0.21	–
COc1cc2c(cc1OC)CN(c1cc(N)c3cc(OC)c(OC)cc3n1)CC2	7.6	6.3	14	5.9	–
COc1nc(C(Cl)(Cl)Cl)c(Cl)c(OC)c1Cl	5.1	9.1	29.9	3.8	–
C[C@@H](Oc1cc(-n2cnc3ccc(CN4CCN(C)CC4)cc32)sc1C(N)=O)c1ccccc1C(F)(F)F	10	12	20	10.3	–
Cc1c(F)c(N2CCN[C@H](C)C2)cc2c1c(=O)c(C(=O)O)cn2C1CC1	–	–	5.9	9.2	0.82
C[C@@H]1C[C@H]2[C@H]3CC=C4CC(=O)C=C[C@]4(C)[C@@]3(Cl)[C@@H](O)C[C@]2(C)[C@@]1(OC(=O)c1ccco1)C(=O)CCl	2.9	2.2	12.7	4.4	–
COC(=O)C1=C(C)NC(C)=C(C(=O)OCCCN2CCC(c3ccccc3)(c3ccccc3)CC2)[C@@H]1c1cccc([N+](=O)[O-])c1	15	8.4	9.3	22	–
COc1ccc(CCN(C)CCC[C@](C#N)(c2cc(OC)c(OC)c(OC)c2)C(C)C)cc1OC	2.04	1.75	14.3	1.8	0.07
C[C@@H](O)C1C(=O)N2C(C(=O)O)=C(S[C@H]3CC(C(=O)N4CC[C@H](NC(=O)CNC(=N)N)C4)N(C)C3)[C@H](C)[C@H]12 (stereo not given in full)	2	0.23	1.9	1.7	0.91
CN(CC(N)=O)C(=O)N(CCCl)N=O	1.4	0.76	9	1	–
Cc1nc(=O)c2cc(CN(C)c3ccc(C(=O)NC(CCC(=O)O)C(=O)O)s3)ccc2[nH]1 (stereo not given)	123	6.57	0.9	140	0.05
CCOC(=O)C(CCc1ccccc1)NC(C)C(=O)N1C(C(=O)O)C[C@H]2CCCC[C@H]21 (stereo not given in full)	–	–	–	–	0.17
O=C(O)C[C@H](O)C[C@H](O)/C=C/c1c(C2CC2)nc2ccccc2c1-c1ccc(F)cc1	2.7	0.9	5.85	4.6	0.005
CC(=O)N1CCN([C@H]2CCN(C(=O)N(C)[C@H](C)c3cc(C(F)(F)F)cc(C(F)(F)F)c3)[C@@H](c3ccc(F)cc3C)C2)CC1	15	2.77	3.07	15.6	1
CCN(CC)CCOC(=O)C(Cc1cccc2ccccc12)CC1CCCO1 (stereo not given)	1.5	0.98	10.8	1.35	0.2
CC(=O)C(C#N)C(=O)Nc1ccc(C(F)(F)F)cc1 (stereo not given)	367	0.16	0.007	350	–
C[C@]12CC[C@H]3[C@@H](CC=C4CC(=O)CC[C@@]43C)[C@@H]1CC[C@@H]2O	0.25	0.35	24.5	0.17	0.057

SMILES	MRT [h]	Vd [L/kg]	clearance [mL/min/kg]	half-life [h]	fraction unbound
NN=c1cc2c(n[nH]1)CCN(C(=O)c1ccccc1)C2	2.7	2.2	13	5.6	–
CNCc1ccc(-c2[nH]c3cc(F)cc4c3c2CCNC4=O)cc1	12.7	3.28	4.31	16.6	–
Cc1ncc(CO)c(CO)c1O	1.38	0.66	7.9	0.98	–
CCCn1c(=O)[nH]c(=O)c2nc[nH]c21	2.6	0.63	4	1.8	0.55
O=C(NC[C@H](O)CO)c1ccncc1Nc1ccc(I)cc1F	3.55	1.8	8.71	4.59	–
Cc1c(OCC(F)(F)F)ccnc1C[S+](O)c1nc2ccccc2[n-]1 (stereo not given)	1.1	0.28	4.4	1	–
C=C(Br)C(=O)Nc1cc(C(=O)Nc2cc(C(=O)Nc3cc(C(=O)Nc4cc(C(=O)NCCN=C(N)N)n(C)c4)n(C)c3)n(C)c2)n(C)c1	1.2	0.36	5.15	8.3	–
CCCCCCN1CCC(C(=O)N(C)CC)(c2ccccc2)CC1	–	–	24	3.6	–
CCC#CC[C@H](C)[C@H](O)C#C[C@H]1[C@H]2CC(=CCOCCCC(=O)O)C[C@H]2C[C@H]1O	0.59	2.4	66.2	0.41	–
O[C@](CO[C@@H]1CN2CCC1CC2)(c1ccccc1)C1CCCC1	17.8	2.12	1.99	15.7	–
N#Cc1ccc2[nH]cc(CCCCN3CCN(c4ccc5oc(C(N)=O)cc5c4)CC3)c2c1	21.5	4.85	3.76	15.7	0.03
CC[C@@]1(O)C(=O)OCc2c1cc1n(c2=O)Cc2c-1nc1cc3c(cc1c2CN1CCN(C)CC1)OCCO3	3.5	4.77	25.1	3.54	–
CCOc1nc2cccc(C(=O)O)c2n1Cc1ccc(-c2ccccc2-c2nnn[nH]2)cc1	5.9	0.13	0.37	9.7	0.002
CN(C)CCCO[C@@H]1[C@H]2OC(C)(C)O[C@H]2O[C@@H]1[C@H](O)CO	5	1.04	3.48	4.07	0.97
CON=C(C(=O)NC1C(=O)N2C(C(=O)[O-])=C(C[N+]34CCC(C(N)=O)(CC3)CC4)CSC12)c1nsc(N)n1 (stereo not given)	2.6	0.27	1.7	2.2	–
CC(CCc1ccc2c(c1)OCO2)NCC(O)c1ccc(O)c(C(N)=O)c1 (stereo not given)	8.2	7.9	16	11	–
O=C(O)C1O[C@@H](Oc2cc3oc(-c4ccc(O)cc4)cc(=O)c3c(O)c2O)[C@H](O)[C@@H](O)[C@@H]1O (stereo not given in full)	0.31	0.88	46.6	1.18	0.1
CCN[C@@H](C)Cc1cccc(C(F)(F)F)c1	18	11	11	14	0.66
CCN1CCC[C@@H]1CNC(=O)c1cc(S(N)(=O)=O)ccc1OC	8.01	0.94	1.9	6.5	–
COc1ccc2c(c1OC)C(=O)O[C@@H]2[C@H]1c2c(cc3c(c2OC)OCO3)CCN1C	2.28	2.3	16.9	2.13	–
CC(=O)OCC1=C(C(=O)O)N2C(=O)C(NC(=O)Cc3cccs3)[C@H]2SC1 (stereo not given in full)	0.65	0.07	1.8	0.95	0.22
CCCNC(C)C(=O)Nc1c(C)csc1C(=O)OC (stereo not given)	1.04	7.7	127	0.98	0.46
CC[C@@]1(O)CN2CC[C@H]1C[C@@H]2[C@@H](O)c1ccnc2ccc(OC)cc12	9.4	6.8	12	6.7	0.47
Cc1onc(-c2ccccc2)c1-c1ccc(S(N)(=O)=O)cc1	9.4	0.75	1.4	7.4	0.02

SMILES	MRT [h]	Vd [L/kg]	clearance [mL/min/kg]	half-life [h]	fraction unbound
COc1ccccc1Oc1c(NS(=O)(=O)c2ccc(C(C)C)cn2)nc(-c2ccnc(-c3nnn[nH]3)c2)nc1OCCO	–	0.28	8.1	3.8	0.0085
C[C@H]1O[C@H](O[C@H]2[C@H](O)[C@@H](O)[C@@H](OC(C(=O)C(O)CO)[C@H](O)CO)O[C@@H]2CO)[C@H](O)[C@@H](O)[C@@H]1N[C@H]1C=C(CO)[C@@H](O)[C@H](O)[C@H]1O (stereo not given in full)	2.4	0.32	2.2	2.7	–
COc1ccc(-n2nc(C(N)=O)c3c2C(=O)N(c2ccc(N4CCCCC4=O)cc2)CC3)cc1	–	0.3	0.8	12	–
Clc1cccc(Cl)c1NC1=NCCN1	14	3.3	4	7.6	0.56
CN1C(=O)C(O)C[C@H]1c1cccnc1 (stereo not given in full)	7.9	0.85	1.8	5.9	–
CC(Oc1ccccc1)C(=O)NC1C(=O)N2C(C(=O)O)C(C)(C)S[C@H]12 (stereo not given in full)	1.2	0.3	4.2	0.91	0.25
C=C(CC(NC(=O)c1ccc(CCc2cnc3nc(N)nc(N)c3n2)cc1)C(=O)O)C(=O)O (stereo not given)	3.78	0.7	3.08	8.2	–
CC1=C(C(=O)O)N2C(=O)C(NC(=O)C(N)c3ccc(O)cc3)[C@H]2SC1 (stereo not given in full)	1.5	0.23	2.5	1.1	–
CCCC[S@](=N)(=O)CCC(N)C(=O)O (stereo not given in full)	1.9	0.26	2.28	1.68	–
CCCCCNC(=N)NN=Cc1c[nH]c2ccc(OC)cc12	4.9	5.3	18	11	–
COc1cc2c(cc1OC)CC(=O)N(CCCN(C)C[C@H]1Cc3cc(OC)c(OC)cc31)CC2	2.69	1.66	10.3	–	0.28
CN1CCOC(c2ccccc2)c2ccccc2C1 (stereo not given)	8.1	5.6	12	5	–
CCC[C@@H]1CC(=O)N(C(CC)C(N)=O)C1 (stereo not given in full)	12.5	0.56	0.75	8.98	0.825
CC[C@H](C)[C@H]1NC(=O)C(NC(=O)C(CC(C)C)N(C)C(=O)C2CCCN2C(=O)C(C)=O)[C@@H](C)OC(=O)C(Cc2ccc(OC)cc2)N(C)C(=O)C2CCCN2C(=O)C(CC(C)C)NC(=O)C(C)C(=O)C(C(C)C)OC(=O)C[C@@H]1O (stereo partly drawn) (Pyruvoyl-[ξP][ξNMeL][ξThr(3R)(O-yl)][X2][ξL][ξP][ξNMeY](Me); ester 3-C)	14.5	6.95	8.05	16.6	–
CN(C)C(=O)Oc1ccc[n+](C)c1	1.8	1.1	9.6	1.5	–
Oc1c(C2=CC[C@@H](c3ccc(Cl)cc3)CC2)c(O)c2ccccc2c1O	67	0.6	0.15	63	0.001
CCCC(C)C1(CC)C(=O)NC(=S)NC1=O (stereo not given)	2.4	1.2	8.2	2	0.14
COP(=O)(c1cc(C)cc(/C=C/C#N)c1)c1c(C(N)=O)[nH]c2ccc(Cl)c(F)c12 (stereo not given)	8.9	0.97	1.83	7.4	–
CCCCCCCC(=O)N[C@H](CN1CCCC1)[C@H](O)c1ccc2c(c1)OCCO2	–	–	20.9	7.7	0.21
O=C(Cn1ccnc1[N+](=O)[O-])NCC(O)C(F)(F)F (stereo not given)	3.86	0.69	3	3.45	–
O=C(NCCN1CCOCC1)c1ccc(Cl)cc1	1.8	1.1	10	1.5	–
CCOC(=O)[C@]1(c2ccccc2)CCC=C[C@H]1NC	4.2	2.5	9.9	4.4	–
C=CCNc1c(O)cc2c(O)c1C=C(C)C[C@H](OC)[C@H](O)[C@@H](C)/C=C(\C)[C@H](OC(N)=O)[C@@H](OC)C=CC=C(C)C(=O)N2	3.27	2	10.2	3	–
